Experimental data as given in US9701664B2, “Fused 1,4-dihydrodioxin derivatives as inhibitors of heat shock transcription factor 1” (Cancer Research Technology Limited, priority 2013, dated 2017).

What was measured:
HSP72 in U2OS cells = assay: Cell-based ELISA (Cellisa) assay, U2OS cells: inhibition of 17-AAG-induced HSP72; settings: Homo sapiens; U2OS cells (Examples 1-168)
Procedure: U2OS cells (5-8×10^4 cells/mL) or SK-OV-3 cells (5-8×10^4 cells/mL) were seeded into 96-well plates and incubated at 37° C. for 48 h. Compounds were then added at a range of concentrations and incubated for 1 h before addition of 17-AAG (250 nM). Cells were then incubated for 18 h. The medium was removed washed 2× with PBS and cells were then fixed with fixing solution (4% paraformaldehyde, 0.3% TritonX-100 in PBS) for 30 min at 4° C. The plates were then washed 2× with PBS before blocking with 5% milk for 30 min at 37° C. After washing the plates 4× with 0.1% Tween-20/deionised water, HSP72 antibody (SPA-810, Enzo Life) was added for 1.5 h at 37° C. Following 4× washes, the plates were incubated with europium-labelled anti-mouse antibody (0.6 ug/ml) in Delfia assay buffer (Perkin Elmer) for 1 h at 37° C. After washing the plates, Delfia enhancement solution was added, shaken for 10 min before reading in the Envision plate reader (Perkin-Elmer) with excitation at 340 nm and emission at 615 nm. The plates were washed again before protein determination using the bicinchoninic acid assay (BCA assay, Pierce Biotechnology). The europium counts were normalised for the amount of protein in each well. The 50% inhibitory concentration value of the compound was then calculated.

U2OS cells = assay: Titre Blue cell viability assay, U2OS cells; assay type: cell-based; settings: Homo sapiens, U2OS

SMILES | IC50 (HSP72 in U2OS cells) | IC50 (U2OS cells)
Cc1ccc(NC(=O)c2ccc3c(c2)OCCO3)cc1NC(=O)c1ccc2oc(=O)ccc2c1 [Example 4, N-(4-methyl-3-(2-oxo-2H-chromene-6-carboxamido)phenyl)-2,3-dihydrobenzo[b][1,4]dioxine-6-carboxamide] | 10 nM | 18 nM
COc1ccc(C(=O)Nc2cc(NC(=O)c3ccc4c(c3)OCCO4)ccc2C)cc1OC [Example 5, N-(3-(3,4-dimethoxybenzamido)-4-methylphenyl)-2,3-dihydrobenzo[b][1,4]dioxine-6-carboxamide] | 53 nM | 47 nM
Cc1ccc(NC(=O)c2ccc3c(c2)OCCO3)cc1NC(=O)c1ccc2c(c1)CCO2 [Example 6, N-(3-(2,3-dihydrobenzofuran-5-carboxamido)-4-methylphenyl)-2,3-dihydrobenzo[b][1,4]dioxine-6-carboxamide] | 17 nM | 77 nM
Cc1ccc(NC(=O)c2ccc3c(c2)OCCO3)cc1NC(=O)c1ccc2c(c1)CCN2C [Example 7, N-(5-(2,3-dihydrobenzo[b][1,4]dioxine-6-carboxamido)-2-methylphenyl)-1-methylindoline-5-carboxamide] | 55 nM | 37 nM
Cc1ccc(NC(=O)c2ccc3c(c2)OCCO3)cc1NC(=O)c1ccc2c(c1)COC2=O [Example 8, N-(4-methyl-3-(1-oxo-1,3-dihydroisobenzofuran-5-carboxamido)phenyl)-2,3-dihydrobenzo[b][1,4]dioxine-6-carboxamide] | 205 nM | 108 nM
Cc1ccc(NC(=O)c2ccc3c(c2)OCCO3)cc1NC(=O)c1ccc2c(c1)CCCO2 [Example 9, N-(3-(chroman-6-carboxamido)-4-methylphenyl)-2,3-dihydrobenzo[b][1,4]dioxine-6-carboxamide] | 22 nM | 90 nM
Cc1ccc(NC(=O)c2ccc3c(c2)OCCO3)cc1NC(=O)c1ccc2ncncc2c1 [Example 10, N-(5-(2,3-dihydrobenzo[b][1,4]dioxine-6-carboxamido)-2-methylphenyl)quinazoline-6-carboxamide] | 29 nM | 15 nM
COc1ccnc2ccc(C(=O)Nc3cc(NC(=O)c4ccc5c(c4)OCCO5)ccc3C)cc12 [Example 11, N-(5-(2,3-dihydrobenzo[b][1,4]dioxine-6-carboxamido)-2-methylphenyl)-4-methoxyquinoline-6-carboxamide] | 38 nM | 95 nM
Cc1ccc(NC(=O)c2ccc3c(c2)OCCO3)cc1NC(=O)c1ccc(OCc2cscn2)nc1 [Example 13, N-(5-(2,3-dihydrobenzo[b][1,4]dioxine-6-carboxamido)-2-methylphenyl)-6-(thiazol-4-ylmethoxy)nicotinamide] | 262 nM | 217 nM
Cc1ccc(NC(=O)c2ccc3c(c2)OCCO3)cc1NC(=O)c1ccc2c(c1)CC(C)O2 (stereo not drawn) [Example 14, N-(4-methyl-3-(2-methyl-2,3-dihydrobenzofuran-5-carboxamido)phenyl)-2,3-dihydrobenzo[b][1,4]dioxine-6-carboxamide] | 81 nM | 94 nM
Cc1ccc(NC(=O)c2ccc3c(c2)OCCO3)cc1NC(=O)c1ccc2c(c1)COC2 [Example 15, N-(3-(1,3-dihydroisobenzofuran-5-carboxamido)-4-methylphenyl)-2,3-dihydrobenzo[b][1,4]dioxine-6-carboxamide] | 76 nM | 75 nM
Cc1ccc(NC(=O)c2ccc3c(c2)OCCO3)cc1NC(=O)c1ccc2c(ccn2C)c1 [Example 16, N-(5-(2,3-dihydrobenzo[b][1,4]dioxine-6-carboxamido)-2-methylphenyl)-1-methyl-1H-indole-5-carboxamide] | 94 nM | 31 nM
Cc1ccc(NC(=O)c2ccc3c(c2)OCCO3)cc1NC(=O)c1ccc2occc2c1 [Example 17, N-(3-(benzofuran-5-carboxamido)-4-methylphenyl)-2,3-dihydrobenzo[b][1,4]dioxine-6-carboxamide] | 97 nM | 73 nM
Cc1ccc(NC(=O)c2ccc3c(c2)OCCO3)cc1NC(=O)c1ccc2sccc2c1 [Example 18, N-(3-(benzo[b]thiophene-5-carboxamido)-4-methylphenyl)-2,3-dihydrobenzo[b][1,4]dioxine-6-carboxamide] | 62 nM | 34 nM
Cc1ccc(NC(=O)c2ccc3c(c2)OCCO3)cc1NC(=O)c1ccc(OCc2ccccn2)cc1 [Example 19, N-(4-methyl-3-(4-(pyridin-2-ylmethoxy)benzamido)phenyl)-2,3-dihydrobenzo[b][1,4]dioxine-6-carboxamide] | 289 nM | 320 nM
Cc1ccc(NC(=O)c2ccc3c(c2)OCCO3)cc1NC(=O)c1ccc2nc(OCCNC(=O)OC(C)(C)C)ccc2c1 [Example 21, tert-butyl (2-((6-((5-(2,3-dihydrobenzo[b][1,4]dioxine-6-carboxamido)-2-methylphenyl)carbamoyl)quinolin-2-yl)oxy)ethyl)carbamate] | 141 nM | 84 nM
Cc1ccc(NC(=O)c2ccc3c(c2)OCCO3)cc1NC(=O)c1ccc2nccc(C#N)c2c1 [Example 24, 4-cyano-N-(5-(2,3-dihydrobenzo[b][1,4]dioxine-6-carboxamido)-2-methylphenyl)quinoline-6-carboxamide] | 174 nM | 169 nM
Cc1ccc(NC(=O)c2ccc3c(c2)OCCO3)cc1NC(=O)c1ccc(OCc2ccccn2)nc1 [Example 25, N-(5-(2,3-dihydrobenzo[b][1,4]dioxine-6-carboxamido)-2-methylphenyl)-6-(pyridin-2-ylmethoxy)nicotinamide] | 1610 nM | 1130 nM
COc1ccc(C(=O)Nc2cc(NC(=O)c3ccc4c(c3)OCCO4)ccc2C)cc1C [Example 26, N-(3-(4-methoxy-3-methylbenzamido)-4-methylphenyl)-2,3-dihydrobenzo[b][1,4]dioxine-6-carboxamide] | 262 nM | 71 nM
COc1ccc(C(=O)Nc2cc(NC(=O)c3ccc4c(c3)OCCO4)ccc2C)cc1 [Example 27, N-(3-(4-methoxybenzamido)-4-methylphenyl)-2,3-dihydrobenzo[b][1,4]dioxine-6-carboxamide] | 371 nM | 106 nM
COc1ccc(C(=O)Nc2cc(NC(=O)c3ccc4c(c3)OCCO4)ccc2C)cc1Cl [Example 28, N-(3-(3-chloro-4-methoxybenzamido)-4-methylphenyl)-2,3-dihydrobenzo[b][1,4]dioxine-6-carboxamide] | 416 nM | 415 nM
COc1ccc2cc(C(=O)Nc3cc(NC(=O)c4ccc5c(c4)OCCO5)ccc3C)ccc2n1 [Example 29, N-(5-(2,3-dihydrobenzo[b][1,4]dioxine-6-carboxamido)-2-methylphenyl)-2-methoxyquinoline-6-carboxamide] | 499 nM | 626 nM
CNC(=O)c1ccc(C(=O)Nc2cc(NC(=O)c3ccc4c(c3)OCCO4)ccc2C)cn1 [Example 33, N5-(5-(2,3-dihydrobenzo[b][1,4]dioxine-6-carboxamido)-2-methylphenyl)-N2-methylpyridine-2,5-dicarboxamide] | 797 nM | 230 nM
Cc1ccc(NC(=O)c2ccc3c(c2)OCCO3)cc1NC(=O)c1ccc2c(c1)CCCC2 [Example 34, N-(4-methyl-3-(5,6,7,8-tetrahydronaphthalene-2-carboxamido)phenyl)-2,3-dihydrobenzo[b][1,4]dioxine-6-carboxamide] | 850 nM | 413 nM
Cc1ccc(NC(=O)c2ccc3c(c2)OCCO3)cc1NC(=O)c1ccc2nc(OCCCNC(=O)OC(C)(C)C)ccc2c1 [Example 35, tert-butyl (3-((6-((5-(2,3-dihydrobenzo[b][1,4]dioxine-6-carboxamido)-2-methylphenyl)carbamoyl)quinolin-2-yl)oxy)propyl)carbamate] | 867 nM | 432 nM
Cc1ccc(NC(=O)c2ccc3c(c2)OCCO3)cc1NC(=O)c1ccc2nccnc2c1 [Example 36, N-(5-(2,3-dihydrobenzo[b][1,4]dioxine-6-carboxamido)-2-methylphenyl)quinoxaline-6-carboxamide] | 1150 nM | 567 nM
COc1cc(C(=O)Nc2cc(NC(=O)c3ccc4c(c3)OCCO4)ccc2C)ccc1Br [Example 41, N-(3-(4-bromo-3-methoxybenzamido)-4-methylphenyl)-2,3-dihydrobenzo[b][1,4]dioxine-6-carboxamide] | 104 nM | 154 nM
COc1c(C)cc(C(=O)Nc2cc(NC(=O)c3ccc4c(c3)OCCO4)ccc2C)cc1C [Example 42, N-(3-(4-methoxy-3,5-dimethylbenzamido)-4-methylphenyl)-2,3-dihydrobenzo[b][1,4]dioxine-6-carboxamide] | 546 nM | 665 nM
Cc1ccc(NC(=O)c2ccc3c(c2)OCCO3)cc1NC(=O)c1cnc2ccncc2c1 [Example 43, N-(5-(2,3-dihydrobenzo[b][1,4]dioxine-6-carboxamido)-2-methylphenyl)-1,6-naphthyridine-3-carboxamide] | 22 nM | 34 nM
Cc1ccc(NC(=O)c2ccc3c(c2)OCCO3)cc1NC(=O)c1cnc2cnccc2c1 [Example 44, N-(5-(2,3-dihydrobenzo[b][1,4]dioxine-6-carboxamido)-2-methylphenyl)-1,7-naphthyridine-3-carboxamide] | 11 nM | 24 nM
